According to ChEMBL document CHEMBL3734695, “Cytotoxic potential of dispirooxindolo/acenaphthoquino andrographolide derivatives against MCF-7 cell line” (Medchemcomm, 2015):
Active and inactive are the calls of the source. No cut-off for these calls is given here.

What follows are compounds tested on MCF7 (assay: Induction of apoptosis in human MCF7 cells assessed as ratio of depolarized to polarized mitochondrial membrane at IC50 by JC-1 dye based FACS analysis). Settings: TDE = time-dependent effect.
Assay type: functional, cell-based
In the case of `C=C1CC[C@@H]2[C@](C)(CO)[C@H](O)CC[C@@]2(C)[C@@H]1CC1CN(Cc2ccccc2)[C@@]2(C(=O)Nc3ccc(Cl)cc32)[C@]12C(=O)OC[C@H]2O` (stereo partly specified), the Activity is reported as “tde”.

Each compound was assayed on MCF7 (assay: Cell cycle arrest in human MCF7 cells assessed as accumulation at G0/G1 phase at IC50 after 48 hrs by propidium iodide staining based flow cytometric analysis (reference value: 59.5%)). Settings: not given.
Assay type: functional
Compound `C=C1CC[C@@H]2[C@](C)(CO)[C@H](O)CC[C@@]2(C)[C@@H]1CC1CN(Cc2ccccc2)[C@@]2(C(=O)Nc3ccc(Cl)cc32)[C@]12C(=O)OC[C@H]2O` (stereo partly specified) has an Activity of 42.9%.

The compounds below were run on MCF7 (assay: Induction of apoptosis in human MCF7 cells assessed as increase in cleaved PARP-1 level at IC50 after 48 hrs by western blot analysis). Settings: not given.
Assay type: functional, cell-based
In the case of `C=C1CC[C@@H]2[C@](C)(CO)[C@H](O)CC[C@@]2(C)[C@@H]1CC1CN(Cc2ccccc2)[C@@]2(C(=O)Nc3ccc(Cl)cc32)[C@]12C(=O)OC[C@H]2O` (stereo partly specified), the Activity is reported as “Active”.

The compounds below were run on MCF7 (assay: Induction of apoptosis in human MCF7 cells assessed as dead cells at IC50 after 48 hrs by annexin V-FITC/propidium iodide staining based flow cytometric analysis (reference value: 0.2%)). Settings: not given.
Assay type: functional
`C=C1CC[C@@H]2[C@](C)(CO)[C@H](O)CC[C@@]2(C)[C@@H]1CC1CN(Cc2ccccc2)[C@@]2(C(=O)Nc3ccc(Cl)cc32)[C@]12C(=O)OC[C@H]2O` (stereo partly specified) showed an Activity of 0.2%.

The compounds below were run on MCF7 (assay: Induction of apoptosis in human MCF7 cells assessed as rounded cells at IC50 after 24 hrs by inverted phase contrast microscopic analysis). Settings: not given.
Assay type: functional, cell-based
With `C=C1CC[C@@H]2[C@](C)(CO)[C@H](O)CC[C@@]2(C)[C@@H]1CC1CN(Cc2ccccc2)[C@@]2(C(=O)Nc3ccc(Cl)cc32)[C@]12C(=O)OC[C@H]2O` (stereo partly specified) the Activity was “Active”.

The compounds below were run on MCF7 (assay: Induction of apoptosis in human MCF7 cells assessed as early apoptotic cells at IC50 after 24 hrs by annexin V-FITC/propidium iodide staining based flow cytometric analysis (reference value: 0.1%)). Settings: not given.
Assay type: functional
`C=C1CC[C@@H]2[C@](C)(CO)[C@H](O)CC[C@@]2(C)[C@@H]1CC1CN(Cc2ccccc2)[C@@]2(C(=O)Nc3ccc(Cl)cc32)[C@]12C(=O)OC[C@H]2O` (stereo partly specified) gave an Activity of 28.5%.

These compounds were tested on MCF7 (assay: Induction of apoptosis in human MCF7 cells assessed as viable cells at IC50 after 24 hrs by annexin V-FITC/propidium iodide staining based flow cytometric analysis (reference value: 99.8%)). Settings: not given.
Assay type: functional
For `C=C1CC[C@@H]2[C@](C)(CO)[C@H](O)CC[C@@]2(C)[C@@H]1CC1CN(Cc2ccccc2)[C@@]2(C(=O)Nc3ccc(Cl)cc32)[C@]12C(=O)OC[C@H]2O` (stereo partly specified), the Activity was 71.5%.

Each compound was assayed on MCF7 (assay: Induction of apoptosis in human MCF7 cells assessed as early apoptotic cells at IC50 after 48 hrs by annexin V-FITC/propidium iodide staining based flow cytometric analysis (reference value: 0.1%)). Settings: not given.
Assay type: functional
`C=C1CC[C@@H]2[C@](C)(CO)[C@H](O)CC[C@@]2(C)[C@@H]1CC1CN(Cc2ccccc2)[C@@]2(C(=O)Nc3ccc(Cl)cc32)[C@]12C(=O)OC[C@H]2O` (stereo partly specified) showed an Activity of 84.8%.

The compounds below were run on MCF7 (assay: Induction of apoptosis in human MCF7 cells assessed as progressive cell detachment at IC50 after 24 hrs by inverted phase contrast microscopic analysis). Settings: not given.
Assay type: functional, cell-based
For `C=C1CC[C@@H]2[C@](C)(CO)[C@H](O)CC[C@@]2(C)[C@@H]1CC1CN(Cc2ccccc2)[C@@]2(C(=O)Nc3ccc(Cl)cc32)[C@]12C(=O)OC[C@H]2O` (stereo partly specified), the Activity was “Active”.

Each compound was assayed on MCF7 (assay: Induction of apoptosis in human MCF7 cells assessed as polarized mitochondrial membrane at IC50 after 24 hrs by JC-1 dye based FACS analysis (reference value: 90%)). Settings: not given.
Assay type: functional
In the case of `C=C1CC[C@@H]2[C@](C)(CO)[C@H](O)CC[C@@]2(C)[C@@H]1CC1CN(Cc2ccccc2)[C@@]2(C(=O)Nc3ccc(Cl)cc32)[C@]12C(=O)OC[C@H]2O` (stereo partly specified), the Activity is reported as 37.7%.

The compounds below were run on MCF7 (assay: Induction of apoptosis in human MCF7 cells assessed as late apoptotic cells at IC50 after 24 hrs by annexin V-FITC/propidium iodide staining based flow cytometric analysis (reference value: 0.0%)). Settings: not given.
Assay type: functional
Work on `C=C1CC[C@@H]2[C@](C)(CO)[C@H](O)CC[C@@]2(C)[C@@H]1CC1CN(Cc2ccccc2)[C@@]2(C(=O)Nc3ccc(Cl)cc32)[C@]12C(=O)OC[C@H]2O` (stereo partly specified) yielded an Activity of 0.7%.

Each compound was assayed on MCF7 (assay: Induction of apoptosis in human MCF7 cells assessed as polarized mitochondrial membrane at IC50 after 48 hrs by JC-1 dye based FACS analysis (reference value: 90%)). Settings: not given.
Assay type: functional
In the case of `C=C1CC[C@@H]2[C@](C)(CO)[C@H](O)CC[C@@]2(C)[C@@H]1CC1CN(Cc2ccccc2)[C@@]2(C(=O)Nc3ccc(Cl)cc32)[C@]12C(=O)OC[C@H]2O` (stereo partly specified), the Activity is reported as 10.2%.

These compounds were tested on MCF7 (assay: Induction of apoptosis in human MCF7 cells assessed as dead cells at IC50 after 24 hrs by annexin V-FITC/propidium iodide staining based flow cytometric analysis (reference value: 0.2%)). Settings: not given.
Assay type: functional
`C=C1CC[C@@H]2[C@](C)(CO)[C@H](O)CC[C@@]2(C)[C@@H]1CC1CN(Cc2ccccc2)[C@@]2(C(=O)Nc3ccc(Cl)cc32)[C@]12C(=O)OC[C@H]2O` (stereo partly specified) showed an Activity of 0.9%.

These compounds were tested on MCF7 (assay: Induction of apoptosis in human MCF7 cells assessed as increase in cleaved caspase-9 level at IC50 after 48 hrs by western blot analysis). Settings: not given.
Assay type: functional, cell-based
For `C=C1CC[C@@H]2[C@](C)(CO)[C@H](O)CC[C@@]2(C)[C@@H]1CC1CN(Cc2ccccc2)[C@@]2(C(=O)Nc3ccc(Cl)cc32)[C@]12C(=O)OC[C@H]2O` (stereo partly specified), the Activity was “Active”.

The compounds below were run on MCF7 (assay: Cell cycle arrest in human MCF7 cells assessed as accumulation at G2/M phase at IC50 after 24 hrs by propidium iodide staining based flow cytometric analysis (reference value: 24.2%)). Settings: not given.
Assay type: functional
`C=C1CC[C@@H]2[C@](C)(CO)[C@H](O)CC[C@@]2(C)[C@@H]1CC1CN(Cc2ccccc2)[C@@]2(C(=O)Nc3ccc(Cl)cc32)[C@]12C(=O)OC[C@H]2O` (stereo partly specified) was tested, and the Activity was 29.5%.

What follows are compounds tested on MCF7 (assay: Induction of apoptosis in human MCF7 cells assessed as late apoptotic cells at IC50 after 48 hrs by annexin V-FITC/propidium iodide staining based flow cytometric analysis (reference value: 0.0%)). Settings: not given.
Assay type: functional
`C=C1CC[C@@H]2[C@](C)(CO)[C@H](O)CC[C@@]2(C)[C@@H]1CC1CN(Cc2ccccc2)[C@@]2(C(=O)Nc3ccc(Cl)cc32)[C@]12C(=O)OC[C@H]2O` (stereo partly specified) showed an Activity of 7.1%.

Each compound was assayed on MCF7 (assay: Cytotoxicity against human MCF7 cells assessed as growth inhibition after 72 hrs by MTT assay). Settings: MCF7, 72 h.
Assay type: functional, cell-based
For `C=C1CC[C@@H]2[C@](C)(CO)[C@H](O)CC[C@@]2(C)[C@@H]1CC1CN(Cc2ccccc2)[C@@]2(C(=O)Nc3ccc(Cl)cc32)[C@]12C(=O)OC[C@H]2O` (stereo partly specified), the IC50 was 12.7 µM.

These compounds were tested on MCF7 (assay: Induction of apoptosis in human MCF7 cells assessed as increase in cleaved caspase-7 level at IC50 after 48 hrs by western blot analysis). Settings: not given.
Assay type: functional, cell-based
For `C=C1CC[C@@H]2[C@](C)(CO)[C@H](O)CC[C@@]2(C)[C@@H]1CC1CN(Cc2ccccc2)[C@@]2(C(=O)Nc3ccc(Cl)cc32)[C@]12C(=O)OC[C@H]2O` (stereo partly specified), the Activity was “Active”.

Each compound was assayed on MCF7 (assay: Induction of apoptosis in human MCF7 cells assessed as depolarized mitochondrial membrane at IC50 after 24 hrs by JC-1 dye based FACS analysis (reference value: 10%)). Settings: not given.
Assay type: functional
In the case of `C=C1CC[C@@H]2[C@](C)(CO)[C@H](O)CC[C@@]2(C)[C@@H]1CC1CN(Cc2ccccc2)[C@@]2(C(=O)Nc3ccc(Cl)cc32)[C@]12C(=O)OC[C@H]2O` (stereo partly specified), the Activity is reported as 62.3%.

The compounds below were run on MCF7 (assay: Induction of apoptosis in human MCF7 cells assessed as viable cells at IC50 after 48 hrs by annexin V-FITC/propidium iodide staining based flow cytometric analysis (reference value: 99.8%)). Settings: not given.
Assay type: functional
For `C=C1CC[C@@H]2[C@](C)(CO)[C@H](O)CC[C@@]2(C)[C@@H]1CC1CN(Cc2ccccc2)[C@@]2(C(=O)Nc3ccc(Cl)cc32)[C@]12C(=O)OC[C@H]2O` (stereo partly specified), the Activity was 7.9%.

Each compound was assayed on MCF7 (assay: Cell cycle arrest in human MCF7 cells assessed as accumulation at S phase at IC50 after 24 hrs by propidium iodide staining based flow cytometric analysis (reference value: 16.3%)). Settings: not given.
Assay type: functional
For `C=C1CC[C@@H]2[C@](C)(CO)[C@H](O)CC[C@@]2(C)[C@@H]1CC1CN(Cc2ccccc2)[C@@]2(C(=O)Nc3ccc(Cl)cc32)[C@]12C(=O)OC[C@H]2O` (stereo partly specified), the Activity was 27.8%.

Each compound was assayed on MCF7 (assay: Induction of apoptosis in human MCF7 cells assessed as depolarized mitochondrial membrane at IC50 after 48 hrs by JC-1 dye based FACS analysis (reference value: 10%)). Settings: not given.
Assay type: functional
`C=C1CC[C@@H]2[C@](C)(CO)[C@H](O)CC[C@@]2(C)[C@@H]1CC1CN(Cc2ccccc2)[C@@]2(C(=O)Nc3ccc(Cl)cc32)[C@]12C(=O)OC[C@H]2O` (stereo partly specified) was tested, and the Activity was 89.8%.

What follows are compounds tested on MCF7 (assay: Cell cycle arrest in human MCF7 cells assessed as accumulation at G2/M phase at IC50 after 48 hrs by propidium iodide staining based flow cytometric analysis (reference value: 24.2%)). Settings: not given.
Assay type: functional
`C=C1CC[C@@H]2[C@](C)(CO)[C@H](O)CC[C@@]2(C)[C@@H]1CC1CN(Cc2ccccc2)[C@@]2(C(=O)Nc3ccc(Cl)cc32)[C@]12C(=O)OC[C@H]2O` (stereo partly specified) showed an Activity of 20.2%.

The compounds below were run on MCF7 (assay: Cell cycle arrest in human MCF7 cells assessed as accumulation at G0/G1 phase at IC50 after 24 hrs by propidium iodide staining based flow cytometric analysis (reference value: 59.5%)). Settings: not given.
Assay type: functional
Work on `C=C1CC[C@@H]2[C@](C)(CO)[C@H](O)CC[C@@]2(C)[C@@H]1CC1CN(Cc2ccccc2)[C@@]2(C(=O)Nc3ccc(Cl)cc32)[C@]12C(=O)OC[C@H]2O` (stereo partly specified) yielded an Activity of 42.7%.

These compounds were tested on MCF7 (assay: Cell cycle arrest in human MCF7 cells assessed as accumulation at S phase at IC50 after 48 hrs by propidium iodide staining based flow cytometric analysis (reference value: 16.3%)). Settings: not given.
Assay type: functional
`C=C1CC[C@@H]2[C@](C)(CO)[C@H](O)CC[C@@]2(C)[C@@H]1CC1CN(Cc2ccccc2)[C@@]2(C(=O)Nc3ccc(Cl)cc32)[C@]12C(=O)OC[C@H]2O` (stereo partly specified) gave an Activity of 35.8%.

What follows are compounds tested on MCF7 (assay: Induction of ROS generation in human MCF7 cells at IC50 after 24 hrs by CM-H2DCFDA staining based flow cytometric analysis (reference value: 12.6%)). Settings: not given.
Assay type: functional
For `C=C1CC[C@@H]2[C@](C)(CO)[C@H](O)CC[C@@]2(C)[C@@H]1CC1CN(Cc2ccccc2)[C@@]2(C(=O)Nc3ccc(Cl)cc32)[C@]12C(=O)OC[C@H]2O` (stereo partly specified), the Activity was 99.4%.
